Experimental data reported in patent publication US10533010B2, “Substituted indole Mcl-1 inhibitors” (Vanderbilt University, priority 2014, dated 2020).
Like-named read-outs stand apart in the source and are kept apart here.

How the values were obtained:
Type in all cases: binding
[1] = molecular target: Bcl-2 (residues 1-207 A96T,G110R, Δ35-91, replaced with Bcl-xL35-50) (Homo sapiens, UniProt P10415, A37E/DEL42-87/G36T/INS34DVEEN/P40E/P88T/P90S/P91E/V35R/V89E); assay: Fluorescence polarization anisotropy competition selectivity assay (FITC-Bak peptide) with Bcl-2; conditions: Table 3; 40 nM Bcl-2, 10 nM FITC-Bak
Procedure: (§1) Compound affinity was measured using a fluorescence polarization anisotropy competition assay. Anisotropy measurements were carried out in 384-well, black, flat-bottom plates (Greiner Bio-one, Monroe, N.C., USA). The assay was run using either a fluorescein isothiocyanate-labeled BH3 peptide derived from Bak (FITC-AHx-[…]-NH2) or a fluorescein isothiocyanate-labeled BH3 peptide derived from Bim (FITC-AHx-[…]-NH2) that were purchased from GenScript (Piscataway, N.J.) at >95% purity and used without further purification. 10 nM FITC-Bak peptide and 15 nM recombinant Mcl-1 (residues 172-327) were added to assay buffer (3 mM dithiothreitol, 50 mM NaCl, 20 mM Tris, pH 7.5). The Bim based assay was run with 1 nM FITC-Bim peptide and 1.5 nM recombinant Mcl-1 (residues 172-327) added to assay buffer (20 mM TRIS pH 7.5, 50 mM NaCl, 3 mM DTT, 0.01% CHAPS). For selectivity assays, 40 nM Bcl-2 (residues 1-207^A96T,G110R, Δ35-91, replaced with Bcl-xL35-50) or 4 nM Bcl-xL (residues 1-209, loop 45-86 deleted) were incubated with 10 nM FITC-Bak in assay buffer.
(§2) Compounds are diluted in DMSO in a 10-point, 3-fold serial dilution scheme. For the FITC-BAK assay 2.5 uL compound is added to 47.5 μL of assay buffer containing FITC-Bak and protein, for a final DMSO concentration of 5% and a top concentration of 20 μM. […] […]. The plate was mixed and incubated for 90 minutes at room temperature. Anisotropy is measured at excitation wavelength 480 nm and emission wavelength 535 nm using an EnVision Multi-label plate reader (PerkinElmer, Wellesley, Mass., USA) or a BioTek Cytation 3 (BioTek, Winooski, Vt., USA). […] IC50 is converted to a binding dissociation constant (Ki value) according to the formula of Wang Z. FEBS Lett (1996) 3, 245.

[2] = molecular target: Bcl-xL (residues 1-209, loop 45-86 deleted) (Homo sapiens (Human), UniProt Q07817, DEL45-86); assay: Fluorescence polarization anisotropy competition selectivity assay (FITC-Bak peptide) with Bcl-xL; conditions: Table 3; 4 nM Bcl-xL, 10 nM FITC-Bak
Bcl-xL (residues 1-209, loop 45-86 deleted), sequence (Q07817 other isoform, or with tags, fused parts or gaps del 45-86): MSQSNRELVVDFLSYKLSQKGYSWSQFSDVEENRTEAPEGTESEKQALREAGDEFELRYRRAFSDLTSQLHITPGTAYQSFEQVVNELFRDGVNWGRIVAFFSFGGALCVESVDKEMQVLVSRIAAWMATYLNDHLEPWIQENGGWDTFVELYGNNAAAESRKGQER
Procedure: as §1, §2

[3] = molecular target: recombinant Mcl-1 (residues 172-327) (Homo sapiens (Human), UniProt Q07820); assay: Fluorescence polarization anisotropy competition assay (FITC-Bak or FITC-Bim BH3 peptide) with Mcl-1
recombinant Mcl-1 (residues 172-327), sequence (Q07820 172-327): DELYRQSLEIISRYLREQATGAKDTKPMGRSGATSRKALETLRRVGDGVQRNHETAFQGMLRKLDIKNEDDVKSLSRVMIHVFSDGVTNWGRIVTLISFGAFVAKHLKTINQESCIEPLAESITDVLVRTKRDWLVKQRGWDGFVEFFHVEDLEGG

[4] = Table 2, Ki bins given in nM, FITC-Bak or FITC-Bim peptide competition, Ki converted from IC50, read-out: Ki for Inhibition of Mcl-1
[5] = Table 3, selectivity panel, read-out: Mcl-1 Ki

Row | Compound | Ki [1] [µM] | Ki [2] [µM] | Ki [3, 4] [nM] | Ki [3, 5] [nM]
1 | Cc1cc(OCCCc2c(C(=O)Nc3cccc(C(=O)O)c3)n(C)c3c(-c4c(C)nn(C)c4C)c(Cl)ccc23)cc(C)c1Cl [I-188, 3-(6-chloro-3-(3-(4-chloro-3,5-dimethylphenoxy)propyl)-1-methyl-7-(1,3,5-trimethyl-1H-pyrazol-4-yl)-1H-indole-2-carboxamido)benzoic acid] | 5.3 | 15.6 | – | –
2 | Cc1cc(OCCCc2c3n(c4c(-c5c(C)nn(C)c5C)c(Cl)ccc24)CCCN(c2cccc(C(=O)O)c2)C3=O)cc(C)c1Cl [I-177, 3-(8-chloro-11-(3-(4-chloro-3,5-dimethylphenoxy)propyl)-1-oxo-7-(1,3,5-trimethyl-1H-pyrazol-4-yl)-4,5-dihydro-1H-[1,4]diazepino[1,2-a]indol-2(3H)-yl)benzoic acid] | 1.9 | – | – | –
3 | Cc1cc(OCCCc2c(C(=O)Nc3cncc(C(=O)O)c3)[nH]c3c(-c4c(C)nn(C)c4C)c(Cl)ccc23)cc(C)c1Cl [I-181, 5-(6-chloro-3-(3-(4-chloro-3,5-dimethylphenoxy)propyl)-7-(1,3,5-trimethyl-1H-pyrazol-4-yl)-1H-indole-2-carboxamido)nicotinic acid] | 3.2 | 61.5 | – | –
4 | Cc1cc(OCCCc2c(C(=O)NCc3cc(C(=O)O)ccn3)[nH]c3c(-c4c(C)nn(C)c4C)cccc23)cc(C)c1Cl [I-280, 2-((3-(3-(4-chloro-3,5-dimethylphenoxy)propyl)-7-(1,3,5-trimethyl-1H-pyrazol-4-yl)-1H-indole-2-carboxamido)methyl)isonicotinic acid] | 7.9 | 27 | – | –
5 | Cc1cc(OCCCc2c3n(c4c(-c5c(C)nn(C)c5C)cccc24)CCCN(Cc2cccc(C(=O)O)c2)C3=O)cc(C)c1Cl [I-32, 3-((11-(3-(4-chloro-3,5-dimethylphenoxy)propyl)-1-oxo-7-(1,3,5-trimethyl-1H-pyrazol-4-yl)-4,5-dihydro-1H-[1,4]diazepino[1,2-a]indol-2(3H)-yl)methyl)benzoic acid] | 3.82 | 13.4 | – | –
6 | Cc1cc(OCCCc2c(C(=O)Nc3ccc(C(=O)O)cc3)[nH]c3c(-c4c(C)nn(CCN5CCOCC5)c4C)c(Cl)ccc23)cc(C)c1Cl [I-190, 4-(6-chloro-3-(3-(4-chloro-3,5-dimethylphenoxy)propyl)-7-(3,5-dimethyl-1-(2-morpholinoethyl)-1H-pyrazol-4-yl)-1H-indole-2-carboxamido)benzoic acid] | 1.64 | 45.6 | […] | […]
7 | Cc1cc(OCCCc2c(C(=O)NCc3c[nH]c(C(=O)O)c3)[nH]c3c(-c4c(C)nn(C)c4C)cccc23)cc(C)c1Cl [I-71, 4-((3-(3-(4-chloro-3,5-dimethylphenoxy)propyl)-7-(1,3,5-trimethyl-1H-pyrazol-4-yl)-1H-indole-2-carboxamido)methyl)-1H-pyrrole-2-carboxylic acid] | 5.95 | 13.8 | – | –
8 | Cc1cc(OCCCc2c(C(=O)N(C)c3cccc(C(=O)O)c3)n(C)c3c(-c4c(C)nn(C)c4C)c(Cl)ccc23)cc(C)c1Cl [I-189, 3-(6-chloro-3-(3-(4-chloro-3,5-dimethylphenoxy)propyl)-N,1-dimethyl-7-(1,3,5-trimethyl-1H-pyrazol-4-yl)-1H-indole-2-carboxamido)benzoic acid] | 1.37 | 4.63 | < 50 | < 7
9 | Cc1cc(OCCCc2c(C(=O)Nc3cccc(C(=O)O)c3)[nH]c3c(-c4c(C)nn(C)c4C)c(Cl)ccc23)cc(C)c1Cl [I-39, 3-(6-chloro-3-(3-(4-chloro-3,5-dimethylphenoxy)propyl)-7-(1,3,5-trimethyl-1H-pyrazol-4-yl)-1H-indole-2-carboxamido)benzoic acid] | 1.54 | 4.59 | – | –
10 | Cc1cc(OCCCc2c3n(c4c(-c5c(C)nn(C)c5C)c(Cl)ccc24)CCCN(Cc2cccc(C(=O)O)c2)C3=O)cc(C)c1Cl [I-80, 3-((8-chloro-11-(3-(4-chloro-3,5-dimethylphenoxy)propyl)-1-oxo-7-(1,3,5-trimethyl-1H-pyrazol-4-yl)-4,5-dihydro-1H-[1,4]diazepino[1,2-a]indol-2(3H)-yl)methyl)benzoic acid] | 2.34 | 6.75 | – | –
11 | Cc1cc(OCCCc2c(C(=O)NCc3cc(C(=O)O)n(C)c3)[nH]c3c(-c4c(C)nn(C)c4C)cccc23)cc(C)c1Cl [I-74, 4-((3-(3-(4-chloro-3,5-dimethylphenoxy)propyl)-7-(1,3,5-trimethyl-1H-pyrazol-4-yl)-1H-indole-2-carboxamido)methyl)-1-methyl-1H-pyrrole-2-carboxylic acid] | 3.54 | > 100 | […] | […]
12 | Cc1cc(OCCCc2c(C(=O)Nc3cc(C(=O)O)ccn3)[nH]c3c(-c4c(C)nn(C)c4C)c(Cl)ccc23)cc(C)c1Cl [I-183, 2-(6-chloro-3-(3-(4-chloro-3,5-dimethylphenoxy)propyl)-7-(1,3,5-trimethyl-1H-pyrazol-4-yl)-1H-indole-2-carboxamido)isonicotinic acid] | 2.9 | 14.4 | – | –
13 | Cc1cc(OCCCc2c3n(c4c(-c5c(C)nn(C)c5C)cccc24)CCCN(Cc2cc(C(=O)O)n(C)c2)C3=O)cc(C)c1Cl [I-79, 4-((11-(3-(4-chloro-3,5-dimethylphenoxy)propyl)-1-oxo-7-(1,3,5-trimethyl-1H-pyrazol-4-yl)-4,5-dihydro-1H-[1,4]diazepino[1,2-a]indol-2(3H)-yl)methyl)-1-methyl-1H-pyrrole-2-carboxylic acid] | – | – | 51 to 100 | –
14 | Cc1cc(OCCCc2c(C(=O)NCc3cc(C(=O)O)c(C)o3)[nH]c3c(-c4c(C)nn(C)c4C)cccc23)cc(C)c1Cl [I-273, 5-((3-(3-(4-chloro-3,5-dimethylphenoxy)propyl)-7-(1,3,5-trimethyl-1H-pyrazol-4-yl)-1H-indole-2-carboxamido)methyl)-2-methylfuran-3-carboxylic acid] | – | – | < 50 | –
15 | Cc1cc(OCCCc2c(C(=O)N[C@@H]3CCN(C(=O)C(=O)O)C3)[nH]c3c(-c4c(C)nn(C)c4C)c(Cl)ccc23)cc(C)c1Cl [I-326, (R)-2-(3-(6-chloro-3-(3-(4-chloro-3,5-dimethylphenoxy)propyl)-7-(1,3,5-trimethyl-1H-pyrazol-4-yl)-1H-indole-2-carboxamido)pyrrolidin-1-yl)-2-oxoacetic acid] | – | – | < 50 | –
